Laboratory results: patent US9802903B2, “Process for preparing antiviral compound” (AbbVie Inc., priority 2010, dated 2017)

Assay: Ames test (mutagenic potential)
Type: cell-based
Conditions: genotoxic testing of process compounds
Description: As discussed above, compound I (including salts thereof) is useful as a drug for treating HCV in humans. Thus, it is important that it be so prepared that it is safe for administration to humans. As one skilled in the art would understand, one aspect of drug safety is the minimization of the amount of genotoxic impurities that are associated with the production of a given drug, and, can therefore also be present in the drug product. A couple of well established tests are used to measure the genotoxicity of chemical compounds. One such test is the computer-based Derek analysis, and the other—the Ames test, which is a biological assay that assesses the mutagenic potential of chemical compounds.

Row | SMILES | Ames test result
1 | Nc1ccc(I)cc1 [Compound 1a, 4-iodoaniline] | negative
2 | CS(=O)(=O)Nc1ccc(I)cc1 [Compound 2a, N-(4-iodophenyl)methanesulfonamide] | negative
